The record followed here is ChEMBL document CHEMBL5537208 (J Med Chem, 2024).

Series [1] in a line: Apparent permeability across apical to basal side in MDCKI-MDR1 cells. It counts as ADME, cell-based, Canis lupus familiaris. Conditions: dog, MDCK-MDR1; call rule not given here.
Series [2] is described as follows: Apparent permeability across basal to apical side in MDCKI-MDR1 cells. It is filed as ADME, cell-based, Canis lupus familiaris. The conditions noted are these: dog, MDCK-MDR1.
A short description of series [3]: Unbound drug concentration in Wistar rat plasma at 1 mg/kg, po measured after 1 hr by LC-tandem MS analysis. It is filed as ADME, organism-based. The conditions noted are these: in vivo.
A short description of series [4]: Unbound drug concentration in Wistar rat brain at 1 mg/kg, po measured after 1 hr by LC-tandem MS analysis. It is filed as ADME, organism-based. Conditions: in vivo.
Series [5] is described as follows: Drug concentration in cerebrospinal fluid of Wistar rat at 1 mg/kg, po measured after 1 hr by LC-tandem MS analysis. It counts as ADME, organism-based. Conditions: read-out: Ct.
Series [6] can be described thus: Ratio of unbound drug concentration in Wistar rat brain to plasma at 1 mg/kg, po measured after 1 hr by LC-tandem MS analysis. It counts as ADME, organism-based. Conditions: read-out: K(p,uu,brain).
A short description of series [7]: Solubility of compound in FeSSIF. It is filed as ADME.
A short description of series [8]: Drug concentration in Wistar rat Cerebrospinal fluid at 30 mg/kg, po measured after 1 hr by LC-tandem MS analysis. Conditions: read-out: Ct. It counts as ADME, organism-based.
Series [9] in a line: Unbound drug concentration in Wistar rat brain at 30 mg/kg, po measured after 1 hr by LC-tandem MS analysis. It is filed as ADME, organism-based. Conditions: in vivo.
A short description of series [10]: In vivo receptor occupancy at OX2R in Wistar rat brain at 30 mg/kg, po measured after 1 hr relative to control. It is filed as functional.
Series [11] in a line: Drug concentration in Wistar rat Cerebrospinal fluid at 100 mg/kg, po measured after 1 hr by LC-tandem MS analysis. Conditions: read-out: Ct. It counts as ADME, organism-based.
Series [12] is described as follows: Unbound drug concentration in Wistar rat brain at 100 mg/kg, po measured after 1 hr by LC-tandem MS analysis. It is filed as ADME, organism-based. Conditions: in vivo.
Series [13] in a line: In vivo receptor occupancy at OX2R in Wistar rat brain at 100 mg/kg, po measured after 1 hr relative to control. It counts as functional.
A short description of series [14]: Drug absorption in rat. It is filed as ADME. Conditions: in vivo.
Series [15] can be described thus: Drug absorption in dog. It counts as ADME, Canis lupus familiaris. Conditions: in vivo.
A short description of series [16]: Thermodynamic solubility in FaSSIF at pH 6.5. It counts as ADME. Conditions: read-out: Therm_solubility.
The nature of series [17]: Thermodynamic solubility in FeSSIF at pH 5.0. It is filed as ADME. The conditions noted are these: read-out: Therm_solubility.
A short description of series [18]: Apparent permeability in wild-type MDCK-II cells. The conditions noted are these: dog. It is filed as ADME, cell-based, Canis lupus familiaris.
Series [19] in a line: Clearance in rat. It is filed as ADME. The conditions noted are these: in vivo.
Series [20] can be described thus: Clearance in dog. It is filed as ADME, Canis lupus familiaris. Conditions: in vivo.
For series [21], the target named is T1, Orexin/Hypocretin receptor type 1 (Homo sapiens, UniProt O43613).
T1 sequence (O43613 whole entry): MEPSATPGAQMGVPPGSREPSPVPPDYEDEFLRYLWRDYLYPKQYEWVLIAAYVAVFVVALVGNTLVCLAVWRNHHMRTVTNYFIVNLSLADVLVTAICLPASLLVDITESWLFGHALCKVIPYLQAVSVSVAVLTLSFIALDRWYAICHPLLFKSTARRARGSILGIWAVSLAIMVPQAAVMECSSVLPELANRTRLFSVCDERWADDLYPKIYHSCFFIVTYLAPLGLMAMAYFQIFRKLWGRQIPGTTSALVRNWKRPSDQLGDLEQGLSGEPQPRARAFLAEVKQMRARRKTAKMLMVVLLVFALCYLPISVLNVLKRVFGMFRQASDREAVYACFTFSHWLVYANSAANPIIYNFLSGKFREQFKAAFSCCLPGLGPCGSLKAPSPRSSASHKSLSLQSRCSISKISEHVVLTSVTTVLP
Description: Antagonist activity at human OX1R expressed in CHO cells preincubated for 120 mins followed by orexin-A addition by FLIPR assay

For a further series, the target named is T2, Orexin receptor type 2 (Homo sapiens, UniProt O43614).
T2 sequence (O43614 whole entry): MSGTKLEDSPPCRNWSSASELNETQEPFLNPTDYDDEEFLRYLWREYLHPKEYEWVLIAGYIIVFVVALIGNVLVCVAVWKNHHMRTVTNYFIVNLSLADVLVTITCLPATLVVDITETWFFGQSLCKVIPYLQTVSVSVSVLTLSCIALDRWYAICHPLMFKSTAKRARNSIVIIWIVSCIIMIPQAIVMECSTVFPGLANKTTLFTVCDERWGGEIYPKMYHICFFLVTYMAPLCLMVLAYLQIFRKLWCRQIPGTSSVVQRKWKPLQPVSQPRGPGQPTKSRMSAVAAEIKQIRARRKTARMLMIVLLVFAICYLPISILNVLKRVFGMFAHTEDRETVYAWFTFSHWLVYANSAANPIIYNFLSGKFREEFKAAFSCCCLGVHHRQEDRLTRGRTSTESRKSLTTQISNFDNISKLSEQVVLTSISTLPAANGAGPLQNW

The nature of series [22]: in vitro. The conditions noted are these: human, liver microsomes.
A short description of series [23]: in vitro. Conditions: rat, liver microsomes.
Series [24] in a line: in vitro. The conditions noted are these: dog, MDCK-MDR1.
Description: Efflux ratio in MDCKI-MDR1 cells
Another series deals with Cytochrome P450 3A4 (Homo sapiens, UniProt P08684). The experiment in a line: Inhibition of CYP3A4 (unknown origin) using testosterone as substrate. It is filed as ADME.

Structures are written as SMILES. Converted amounts (≈) assume the structure as drawn. Some results are limits rather than exact numbers.

Sequence of Cytochrome P450 3A4 (P08684 whole entry): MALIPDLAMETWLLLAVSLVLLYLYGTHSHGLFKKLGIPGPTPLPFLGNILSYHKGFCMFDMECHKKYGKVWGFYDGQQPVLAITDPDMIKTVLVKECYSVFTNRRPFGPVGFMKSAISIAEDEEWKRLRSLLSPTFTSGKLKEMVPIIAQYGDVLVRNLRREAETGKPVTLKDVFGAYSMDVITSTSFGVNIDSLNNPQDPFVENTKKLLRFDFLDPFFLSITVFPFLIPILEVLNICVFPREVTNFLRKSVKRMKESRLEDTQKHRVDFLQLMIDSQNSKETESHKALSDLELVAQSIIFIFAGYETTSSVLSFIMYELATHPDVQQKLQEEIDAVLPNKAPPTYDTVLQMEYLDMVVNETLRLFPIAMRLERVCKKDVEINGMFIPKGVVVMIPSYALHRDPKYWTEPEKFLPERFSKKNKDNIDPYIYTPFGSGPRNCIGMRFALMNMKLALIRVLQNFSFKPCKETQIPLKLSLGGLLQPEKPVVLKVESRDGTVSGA
Description for Orexin receptor type 2: Antagonist activity at human OX2R expressed in CHO cells preincubated for 120 mins followed by orexin-A addition by FLIPR assay

On to `Cc1ccc(C(=O)N2CCOC[C@H]2Cc2cccc(-n3nccn3)c2)c(-n2nccn2)c1` [NIVASOREXANT], for which, in series [1], the apparent permeability from apical to basolateral (Papp A→B) is 20.4 ×10⁻⁶ cm/s. Also, in series [2], the apparent permeability from basolateral to apical (Papp B→A) was determined as 70.5 ×10⁻⁶ cm/s. Moreover, the “Cp(f)” value in [3] was found to be 227 nM. Moreover, the “Drug uptake(free)” value is given as 413 nM in series [4], 92 nM in [9] and 413 nM in series [12]. For the same compound, the concentration at 1 h in series [5] was 718 nM; in series [8], 240 nM; in series [11], 718 nM. Besides, the Kp uu at 1 h in series [6] was 1.82. In addition, the concentration in solution in series [7] (solubility) was 270 µg/mL (≈ 629 µM). The Occ is 71% in series [10] and 92% in [13]. Also, the Drug absorption entry in series [14] and in [15] was “Active” in each case. For the same compound, the solubility thermodynamic in series [16] was determined as 72 µg/mL (≈ 168 µM); in series [17], 150 µg/mL (≈ 349 µM). The apparent permeability coefficient (Papp) in [18] turned out to be 43.9 ×10⁻⁶ cm/s. In addition, the clearance stood at 31 mL/min/kg in series [19] and 7.7 mL/min/kg in series [20]. Also, the IC50 in series [21] came to 1.7 nM; against Orexin receptor type 2 it was 227 nM. The results for the intrinsic metabolic clearance (microsomal CLint) at 1 µM in the series “in vitro [22]” and in the series “in vitro [23]” were 156 µL/min/mg and > 1250 µL/min/mg, respectively. The efflux ratio in “in vitro [24]” was found to be 3.5.

Turning to `Cc1ccc(-n2nccn2)c(C(=O)N2CCNC[C@H]2Cc2cccc(-n3nccn3)c2)c1`, the results for the half-maximal inhibitory concentration (IC50) at Cytochrome P450 3A4 and against Orexin receptor type 2 were 25000 nM and 666 nM, respectively.

Regarding `Cc1ccc(C(=O)N2CCOC[C@H]2Cc2cc(-n3nccn3)ccc2F)c(-n2nccn2)c1`, the “Cp(f)” value in series [3] is recorded as 177 nM. In addition, the entries for the “Drug uptake(free)” value in series [4], in series [9] and in [12] were 307 nM, 10 nM and 307 nM, respectively. In addition, the figures for the concentration at 1 h in series [5], in series [8] and in series [11] were 550 nM, 45 nM and 550 nM, respectively. In addition, the Kp uu at 1 h in [6] is 1.73. The Occ in series [10] was 13%; in [13] it was 82%. In “in vitro [22]”, this compound displayed a microsomal CLint at 1 µM of 99 µL/min/mg.
